Laboratory results published in PubChem BioAssay (NCI).
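1) Cells in 96-well plates. 2) Compound, 48 h, 5 concentrations. 3) Linear interpolation between surrounding doses. 4) Unreached endpoint = highest concentration. TGI marks complete inhibition of growth.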

Key:
Assay in all cases: DTP human tumour cell line panel, 48 h
786-0 renal = tested on: 786-0 renal
A498 renal = tested on: A498 renal
A549 NSCLC = tested on: A549 NSCLC
ACHN renal = tested on: ACHN renal
CCRF-CEM leukemia = tested on: CCRF-CEM leukemia
DLD-1 colon = tested on: DLD-1 colon
DMS 114 small cell lung = tested on: DMS 114 small cell lung
EKVX NSCLC = tested on: EKVX NSCLC
HCC-2998 colon = tested on: HCC-2998 colon
HCT-116 colon = tested on: HCT-116 colon
HCT-15 colon = tested on: HCT-15 colon
HL-60(TB) leukemia = tested on: HL-60(TB) leukemia
HOP-18 NSCLC = tested on: HOP-18 NSCLC
HOP-62 NSCLC = tested on: HOP-62 NSCLC
HT29 colon = tested on: HT29 colon
IGROV1 ovarian = tested on: IGROV1 ovarian
K-562 leukemia = tested on: K-562 leukemia
KM12 colon = tested on: KM12 colon
KM20L2 colon = tested on: KM20L2 colon
LOX IMVI melanoma = tested on: LOX IMVI melanoma
LXFL 529 NSCLC = tested on: LXFL 529 NSCLC
M14 melanoma = tested on: M14 melanoma
M19-MEL melanoma = tested on: M19-MEL melanoma
MALME-3M melanoma = tested on: MALME-3M melanoma
MOLT-4 leukemia = tested on: MOLT-4 leukemia
NCI-H226 lung = tested on: NCI-H226 lung
NCI-H23 lung = tested on: NCI-H23 lung
NCI-H460 lung = tested on: NCI-H460 lung
OVCAR-3 ovarian = tested on: OVCAR-3 ovarian
OVCAR-4 ovarian = tested on: OVCAR-4 ovarian
OVCAR-5 ovarian = tested on: OVCAR-5 ovarian
OVCAR-8 ovarian = tested on: OVCAR-8 ovarian
RPMI-8226 leukemia = tested on: RPMI-8226 leukemia
RXF 393 renal = tested on: RXF 393 renal
RXF-631 renal = tested on: RXF-631 renal
SF-268 CNS = tested on: SF-268 CNS
SF-295 CNS = tested on: SF-295 CNS
SF-539 CNS = tested on: SF-539 CNS
SK-MEL-28 melanoma = tested on: SK-MEL-28 melanoma
SK-OV-3 ovarian = tested on: SK-OV-3 ovarian
SN12C renal = tested on: SN12C renal
SNB-19 CNS = tested on: SNB-19 CNS
SNB-75 CNS = tested on: SNB-75 CNS
SNB-78 CNS = tested on: SNB-78 CNS
SR leukemia = tested on: SR leukemia
SW-620 colon = tested on: SW-620 colon
TK-10 renal = tested on: TK-10 renal
U251 CNS = tested on: U251 CNS
UACC-257 melanoma = tested on: UACC-257 melanoma
UACC-62 melanoma = tested on: UACC-62 melanoma
UO-31 renal = tested on: UO-31 renal
XF 498 CNS = tested on: XF 498 CNS
DMS 273 small cell lung = tested on: DMS 273 small cell lung
HOP-92 NSCLC = tested on: HOP-92 NSCLC
NCI-H522 lung = tested on: NCI-H522 lung
CAKI-1 renal = tested on: CAKI-1 renal
COLO 205 colon = tested on: COLO 205 colon
SK-MEL-2 melanoma = tested on: SK-MEL-2 melanoma
SK-MEL-5 melanoma = tested on: SK-MEL-5 melanoma

Measured: TGI

CCN(N=O)C1C2(CCCC2)NC(=O)C12CCCC2 (stereo not drawn)
not listed: DMS 273 small cell lung | HOP-92 NSCLC | NCI-H522 lung | CAKI-1 renal | COLO 205 colon | SK-MEL-2 melanoma | SK-MEL-5 melanoma
> 100 µM: all other assays above

NC(CCc1nc(-c2cccc([N+](=O)[O-])c2)cs1)C(=O)O (stereo not drawn)
not listed: 786-0 renal | DLD-1 colon | HCC-2998 colon | HCT-15 colon | HOP-18 NSCLC | K-562 leukemia | LOX IMVI melanoma | LXFL 529 NSCLC | MALME-3M melanoma | NCI-H226 lung | OVCAR-3 ovarian | OVCAR-4 ovarian | RPMI-8226 leukemia | SF-268 CNS | SF-539 CNS | SN12C renal | SNB-75 CNS | SW-620 colon | XF 498 CNS | CAKI-1 renal | COLO 205 colon | SK-MEL-2 melanoma | SK-MEL-5 melanoma
> 100 µM: all other assays above

CC(=O)OCc1nnn2c1C(OC(C)=O)CC2 (stereo not drawn)
not listed: A498 renal | CCRF-CEM leukemia | HL-60(TB) leukemia | HOP-18 NSCLC | HOP-62 NSCLC | LOX IMVI melanoma | SF-268 CNS
> 100 µM: all other assays above

NNC(=O)/C(NC(=O)c1ccccc1)=C(\N)c1cccc([N+](=O)[O-])c1
not listed: KM20L2 colon
> 100 µM: all other assays above
